In PMC11971462, “Generation and validation of a novel multitarget small molecule in glioblastoma” (Cell Death & Disease, 2025):

Tests used:
U87-MG cells [1] = assay: Washout experiment after treatment; type: in vivo, athymic nude-Foxn1nu mice; conditions: after 4 weeks treatment; controls 10 days
Experimental: (§1) For tumor growth experiments, 5 × 10^5 U87-MG cells were subcutaneously injected into two bottom flanks of athymic nude-Foxn1^nu mice, and once tumors reached a size of 25-50 mm^3, mice were sorted into groups taking into account gender and tumor size. Afterwards, mice were intratumorally treated with vehicle, SAHA 100 µM or DDI199 100 µM following a schedule of 5 days on and 2 days off. In combined treatment, mice were treated intraperitoneally with 0.5 mg/Kg of TMZ for 5 days and intratumorally following a schedule of 5 days on and 2 days off with vehicle, SAHA 100 µM or DDI199 100 µM. After 4 weeks of treatment, some mice were kept for washout experiment, while the rest were sacrificed and tumors were extracted for immunohistochemistry and to disaggregate for reinjection and oncosphere formation studies. For reinjection assays, 1.5 × 10^5 cells were subcutaneously injected and tumor size was periodically measured. Once tumors reached end-point criteria, they were extracted for immunohistochemical analysis. An external caliper was used for tumor size measurement and the tumor volume was estimated using the formula V = L · W^2 · 0.5 (where L is tumor length and W is the tumor width).

U87-MG cells [2] = assay: Subcutaneous U87-MG tumor growth, single treatment; type: in vivo, athymic nude-Foxn1nu mice; conditions: day 34, 100 µM intratumoral, 5 days on 2 days off; controls 800 mm^3
Experimental: as §1

U87-MG cells [3] = assay: Subcutaneous U87-MG tumor growth, combined treatment with TMZ; type: in vivo, athymic nude-Foxn1nu mice; conditions: end-point, controls 600 mm^3
Experimental: as §1

U87-MG cells [4] = assay: Cell viability with TMZ and DDI199 alone or combined; type: cell-based, human; conditions: 72 h, 250 µM TMZ or 0.5 µM DDI199 alone
Experimental: MTT assay was used to study cell viability. For that, cells were seeded at a density of 1.5 × 10^3 cells/well in 96-well plates, incubated overnight and then treated with increasing concentrations of DDI199. After 72 h of treatment, MTT absorbance was measured at 570 nm. GraphPad Prism software was used to analyze results and calculate IC50 values.

Compound	Time to end-point volume after washout (U87-MG cells [1])	Mean final tumor volume (U87-MG cells [2])	Mean tumor volume, combined with TMZ (U87-MG cells [3]; TMZ 0.5 mg/kg ip 5 days + 100 µM intratumoral)	Cell viability, single agent (U87-MG cells [4])	Mean tumor volume, TMZ alone (U87-MG cells [3]; TMZ 0.5 mg/kg ip 5 days)
O=C(CCCCCCC(=O)Nc1ccccc1)NO [SAHA, Vorinostat, reference compound]	10 days	550 mm^3	355 mm^3		
Cn1nnc2c(C(N)=O)ncn2c1=O [TMZ, temozolomide, reference compound]				reduced cell viability	400 mm^3
